Columns and labels:
[1] = system: C57BL/KsJ db/db mice; assay: Acute combination treatment of a biguanide and an FBPase inhibitor in db/db mice (Example DD); assay type: in vivo, mouse
Experimental: Male C57BL/KsJ db/db mice were purchased at 5 weeks of age from Clea Japan, Inc. (Tokyo, Japan). The mice were maintained under standard vivarium conditions (24-26° C., 12-hour light cycle, 12-hour dark cycle) and received standard chow and water ad libitum. […] The treatment groups were control, compound J , metformin, and the combination of compound J and metformin. […] Food was removed after treatment. Blood glucose levels in tail vein samples were measured by means of a Glucoloader-F, an automatic glucose analyzer, (A&T Co., Ltd., Tokyo, Japan).

[2] = system: Sprague-Dawley or Wistar rats; details: fasted rat, cited from earlier work
[3] = system: C57BL/KsJ db/db mice; assay: Acute combination treatment of insulin and Compound G in db/db mice (Example Z); assay type: in vivo, mouse
Experimental: Male C57BL/KsJ db/db mice were purchased at 5 weeks of age from Clea Japan, Inc. (Tokyo, Japan). The mice were maintained under standard vivarium conditions (24-26° C., 12-hour light cycle, 12-hour dark cycle) and received standard chow and water ad libitum. At 20 weeks of age, animals were divided into 4 groups (n=6/group). The treatment groups were control, compound G, insulin, and the combination of compound G and insulin. […] Insulin (human recombinant insulin, Penfill R300, Novo Nordisk, Denmark) was injected subcutaneously at a dose of 1.5 U/kg. Food was removed after treatment. Blood glucose levels in tail vein samples were measured by means of a Glucoloader-F, an automatic glucose analyzer, (A&T Co., Ltd., Tokyo, Japan).

[4] = system: C57BL/KsJ db/db mice; assay: Chronic combination treatment of insulin and Compound G in db/db mice (Example AA); assay type: in vivo, mouse
Experimental: Male C57BL/KsJ db/db mice were purchased at 5 weeks of age from Clea Japan, Inc. (Tokyo, Japan). The mice were maintained under standard vivarium conditions (24-26° C., 12-hour light cycle, 12-hour dark cycle) and received standard chow and water ad libitum. At 16 weeks of age, animals were divided into 2 groups (n=5 or 9-10/group). Both groups were subcutaneously injected with human recombinant insulin (Penfill N300, Novo Nordisk, Denmark) on a daily basis to adjust plasma glucose levels to the target range of 250 to 300 mg/dL.

[5] = system: C57BL/KsJ db/db mice; assay: Chronic combination treatment of insulin and Compound J in db/db mice (Example BB); assay type: in vivo, mouse
Experimental: Male C57BL/KsJ db/db mice were purchased at 5 weeks of age from Clea Japan, Inc. (Tokyo, Japan). […] At 19 weeks of age, animals were divided into 2 groups (n=6/group). […] Blood glucose levels in tail vein samples were measured by means of a Glucoloader-F, an automatic glucose analyzer, (A&T Co., Ltd., Tokyo, Japan).

[6] = system: Goto-Kakizaki (GK) rats; assay: Acute combination treatment of insulin and an FBPase inhibitor in the Goto-Kakizaki rat (Example CC); assay type: in vivo
Experimental: Male Goto-Kakizaki (GK) rats were purchased at 9 weeks of age from Charles River Japan, Inc. (Tokyo, Japan). The rats were maintained under standard vivarium conditions (24-26° C., 12-hour light cycle, 12-hour dark cycle) and received standard chow and water ad libitum. At 48 weeks of age, animals were divided into 4 groups (n=6/group) after an overnight fast. The treatment groups were control, Compound J, insulin, and combination of Compound J and insulin. […] Insulin (human recombinant insulin, Penfill N300, Novo Nordisk, Denmark) was subcutaneously injected at the dose of 1.5 U/kg. Blood glucose levels in tail vein samples were measured by means of a Glucoloader-F, an automatic glucose analyzer, (A&T Co., Ltd., Tokyo, Japan).

CN(C)C(=N)N=C(N)N [Metformin, metformin, reference compound]
Plasma Glucose, % of pretreatment value ([1]; after 2 hour): (67.7 +/− 1.9) %
Plasma Glucose ([1]; after 2 hour, Compound J and/or metformin 150 mg/kg p.o.): 347.0 ± 21.2 mg/dL
Plasma Glucose ([1]; after 4 hour): 346.5 ± 34.6 mg/dL
Plasma Glucose, % of pretreatment value ([1]; after 4 hour): (66.4 +/− 3.1) %
Plasma Glucose ([1]; after 6 hour): 348.3 ± 30.7 mg/dL
Plasma Glucose, % of pretreatment value ([1]; after 6 hour): (67.7 +/− 4.1) %
Plasma Glucose ([1]; after 8 hour): 407.8 ± 40.0 mg/dL
Plasma Glucose, % of pretreatment value ([1]; after 8 hour): (79.1 +/− 5.6) %
Plasma Glucose ([1]; before (0 hour)): 515.7 ± 37.0 mg/dL
Plasma Glucose, % of pretreatment value ([1]; before (0 hour)): (100.0 +/− 0.0) %
blood glucose lowering ([1]; db/db mice, acute): lowered blood glucose significantly relative to controls

CCOc1cc(CC(=O)N[C@@H](CC(C)C)c2ccccc2N2CCCCC2)ccc1C(=O)O [Repaglinide]
ED50 ([2]; 2 h): 0.01 (2 h) mg/kg
Gluc low,% ([2]; Dose 0.01): −21%

Insulin: human recombinant insulin, Penfill R300 (Example Z) or Penfill N300 (Examples AA, BB, CC), Novo Nordisk
Plasma Glucose, % of pretreatment values ([3]; after 1 hour): (54.2 +/− 4.1) %
Plasma Glucose ([3]; after 1 hour, Compound G 200 mg/kg p.o., insulin 1.5 U/kg s.c.): 410.8 ± 34.4 mg/dL
Plasma Glucose ([3]; after 4 hours): 540.3 ± 35.9 mg/dL
Plasma Glucose, % of pretreatment values ([3]; after 4 hours): (71.4 +/− 4.1) %
Plasma Glucose ([3]; after […]): 463.2 ± 40.2 mg/dL
Plasma Glucose, % of pretreatment values ([3]; after […]): (61.1 +/− 4.9) %
Plasma Glucose ([3]; before (0 hour)): 756.2 ± 15.2 mg/dL
Plasma Glucose, % of pretreatment values ([3]; before (0 hour)): (100.0 +/− 0.0) %
plasma glucose lowering ([3]; db/db mice, acute): improved hyperglycemia within 2.5 hours
Body Weight ([4]; after 1 week): 50.7 ± 1.5 g
Insulin Dose required to adjust plasma glucose to 250-300 mg/dL ([4]; after 1 week): 753 +/− 72 U/kg
Plasma Glucose ([4]; after 1 week, insulin adjusted daily, Compound G 0.2% food admixture): 297.1 ± 46.0 mg/dL
Body Weight ([4]; after 2 weeks): 54.3 ± 1.2 g
Insulin Dose required to adjust plasma glucose to 250-300 mg/dL ([4]; after 2 weeks): 492 +/− 68 U/kg
Plasma Glucose ([4]; after 2 weeks): 375.6 ± 53.5 mg/dL
Body Weight ([4]; after 3 weeks): 57.4 ± 1.6 g
Insulin Dose required to adjust plasma glucose to 250-300 mg/dL ([4]; after 3 weeks): 306 +/− 67 U/kg
Plasma Glucose ([4]; after 3 weeks): 282.4 ± 43.1 mg/dL
Body Weight ([4]; before (0 week)): 43.4 ± 2.2 g
Insulin Dose required to adjust plasma glucose to 250-300 mg/dL ([4]; before (0 week)): 548 +/− 18 U/kg
Plasma Glucose ([4]; before (0 week)): 736.5 ± 17.0 mg/dL
body weight increase ([4]; db/db mice, 3 weeks): increased body weight remarkably
Body Weight ([5]; after 1 week): 57.9 ± 1.3 g
Insulin Dose required to achieve target blood glucose levels ([5]; after 1 week): 495 +/− 32 U/kg
Plasma Glucose ([5]; after 1 week, insulin adjusted daily, Compound J 0.2% food admixture): 408.8 ± 15.3 mg/dL
Body Weight ([5]; after 2 weeks): 59.7 ± 1.3 g
Insulin Dose required to achieve target blood glucose levels ([5]; after 2 weeks): 699 +/− 63 U/kg
Plasma Glucose ([5]; after 2 weeks): 447.7 ± 17.6 mg/dL
Body Weight ([5]; after 3 weeks): 61.4 ± 1.2 g
Insulin Dose required to achieve target blood glucose levels ([5]; after 3 weeks): 760 +/− 95 U/kg
Plasma Glucose ([5]; after 3 weeks): 396.3 ± 39.3 mg/dL
Body Weight ([5]; after 4 weeks): 64.2 ± 1.0 g
Insulin Dose required to achieve target blood glucose levels ([5]; after 4 weeks): 802 +/− 129 U/kg
Plasma Glucose ([5]; after 4 weeks): 316.7 ± 17.2 mg/dL
Body Weight ([5]; before (0 week)): 54.9 ± 1.4 g
Insulin Dose required to achieve target blood glucose levels ([5]; before (0 week)): 0 +/− 0 U/kg
Plasma Glucose ([5]; before (0 week)): 617.2 ± 28.1 mg/dL
body weight gain ([5]; db/db mice, 4 weeks of treatment): resulted in an increase in body weight
plasma glucose lowering ([6]; GK rats, acute): decreased plasma glucose within 2 hours
Plasma Glucose, % of before ([6]; after 2 hour): (55.0 +/− 11.0) %
Plasma Glucose ([6]; after 2 hour, Compound J 50 mg/kg p.o., insulin 1.5 U/kg s.c.): 88.8 ± 16.8 mg/dL
Plasma Glucose ([6]; after 4 hours): 71.3 ± 20.9 mg/dL
Plasma Glucose, % of before ([6]; after 4 hours): (43.9 +/− 13.3) %
Plasma Glucose ([6]; after 6 hours): 90.7 ± 19.7 mg/dL
Plasma Glucose, % of before ([6]; after 6 hours): (55.4 +/− 12.4) %
Plasma Glucose ([6]; before (0 hour)): 163.7 ± 5.8 mg/dL
Plasma Glucose, % of before ([6]; before (0 hour)): (100.0 +/− 0.0) %

From US7563774B2, “Combination of FBPase inhibitors and antidiabetic agents useful for the treatment of diabetes” (Metabasis Therapeutics, Inc., priority 2000, dated 2009)
